The nature of series [1]: In vitro dissolution in 0.5% SDS solution. Type of series: physicochemical. Particulars: 37 °C, 75 rpm. The procedure: The concentrations of CCG-211790 nanosuspensions were measured using an Agilent series 1100 HPLC system (Agilent Technologies, Santa Clara, CA, USA) equipped with a diode array detector. Sample separation was carried out with a Kinetex C18 column (75 mm × 3 mm, particle size 2.6 µm, Phenomenex, Torrance, CA, USA). The mobile phase was acetonitrile-water (50:50, v/v), flow rate was set to 0.5 mL/min, and column temperature to 35 °C. The injection volume was 30 µL. The absorption wavelength was set at 255 nm. CCG-211790 nanoparticles were dissolved in the mobile phase for HPLC analysis. Due to the fact that the analyte concentration was high and no other matrix was present in the sample, the HPLC method performed very well with excellent calibration linearity, reproducibility, and spike recovery. During sample analysis, ongoing quality controls were performed including a reagent blank, a duplicate sample, and spike recovery samples for every 10 samples analyzed.
The in vitro dissolution profiles of CCG-211790 bulk powder, NanoA and NanoB suspensions were examined. SDS is one of the most frequently used artificial surfactants in dissolution test to establish sink conditions for water-insoluble drugs. Therefore, a SDS solution (0.5% w/v in water) was used as the dissolution medium in this study. In each dissolution test, suspension or powder equivalent to 4 mg of CCG-211790 were directly dispersed in 500 mL dissolution medium under magnetic stirring at 75 rpm. The temperature of the dissolution medium was maintained at 37 ± 1 °C in a water bath. Sample aliquots (3 mL) were withdrawn at predetermined time points (5, 10, 20, 30, 45, and 60 min) and immediately replaced with 3 mL of fresh dissolution medium to readjust the volume to 500 mL. Undissolved particles were separated by centrifugation at 10,000× g for 5 min and the supernatant was collected for HPLC analysis. All experiments were run in triplicate.

A short description of series [2]: Solubility and solution stability of CCG-211790. Type of series: physicochemical. Particulars: PEG/PG solution, aqueous with cosolvent or surfactant or cyclodextrin; ethanol (10%), propylene glycol (25%), PEG 400 (35%) and water (30%).
The conditions of series [3]: cited from earlier work.
The subject of series [4] is methicillin-resistant Staphylococcus aureus (MRSA). Further details: method as in PMID 33556134. Particulars: cited from earlier work.

In general, solubility refers to how much of the substance goes into solution per volume. The low end stands for a poorly soluble substance, the high end for a readily soluble substance.

On to `COc1ccc2c(c1)-c1nc(SCC(F)(F)F)n(C)c(=O)c1C(C)(C)C2` [CCG-211790 bulk powder], for which the drug release was 19.6% in series [1] (at 5 min), 63.4% in series [1] (at 45 min) and 64.3% in series [1] (at 60 min).

Consider `COc1ccc2c(c1)-c1nc(SCC(F)(F)F)n(C)c(=O)c1C(C)(C)C2` [CCG-211790, 9-methoxy-3,5,5-trimethyl-2-((2,2,2-trifluoroethyl)thio)-5,6-dihydrobenzo[h]quinazolin-4(3H)-one], for which the solubility in series [2] is at most 1000 µg/mL. In series [3], the aqueous solubility entry is on record as “less than 50 ng/mL” and the “solubility in coconut oil” value is recorded as “up to 37 mg/mL”. Moreover, the “biofilm formation of MRSA” value in series [4] was “inhibited”.

(Values after article PMC8540953, “Preparation and Pharmacokinetic Characterization of an Anti-Virulence Compound Nanosuspensions” (Pharmaceutics, 2021).)
